Results taken from patent US20220378706A1, “PHARMACEUTICAL COMPOSITION COMPRISING PDE9 INHIBITOR” (Eisai R&D Management Co., Ltd., priority 2017, published 2022).
Like-named read-outs stand apart in the source and are kept apart here.

Assay: Multiple ascending dose study: plasma pharmacokinetics
Format: in vivo
Conditions: human, po; for Tmax: read-out: tmax Median
Protocol: Four sequential cohorts of healthy participants (≥50 years and ≤85 years old) were treated with multiple ascending doses of Compound A up to the maximum tolerated dose (MTD). A total of 6 participants per cohort were randomized to Compound A. Proposed doses of Compound A were:
Participants received Compound A capsules, orally once daily (QD) on Days 1 to 14 after an overnight fast of at least 10 hours. Compound A was administered orally with 240 milliliter (mL) (8 fluid ounces) of water.
1) Maximum drug concentration (Cmax) [Time Frame: Day 1 and Day 14]
Blood samples were collected on Day 1 at predose and postdose 0.5 (30 minutes), 1, 1.5, 2, 3, 4, 5, 6, 8, 12, and 18 hours; Day 14 (at predose and postdose 0.5, 1, 1.5, 2, 3, 4, 5, 6, 8, 12, and 18 hours); and Day 15 (24 hours postdose from Day 14).
2) Mean time to reach maximum (peak) drug concentration (tmax) [Time Frame: Day 1 and Day 14]
4) Mean area under the concentration-time curve from zero time extrapolated to infinity (AUC(0-inf)) [Time Frame: Day 14]

Work on `COc1ncc(C)c(-c2ccc3c(c2)[nH]c(=O)c2cnn([C@H]4CCOC4)c23)c1C` [Compound A, (S)-7-(2-methoxy-3,5-dimethylpyridin-4-yl)-1-(tetrahydrofuran-3-yl)-1H-pyrazolo[4,3-c]quin olin-4(5H)-one] yielded an AUC(0-t) (5 mg, Day 1, 5 mg QD oral, read-out: AUC(0-24 h) GM (% CV)) of 344 ng·h/mL, an AUC(0-t) (5 mg, Day 1, 5 mg QD oral, read-out: AUC(0-24 h) Mean (SD)) of 352 ng·h/mL and an AUC(0-t) (5 mg, Day 1, 5 mg QD oral, read-out: AUC(0-24 h) Median) of 340 ng·h/mL. It also gave a Cmax (5 mg, Day 1, 5 mg QD oral, read-out: Cmax GM (% CV)) of 26.3 ng/mL, a Cmax (5 mg, Day 1, 5 mg QD oral, read-out: Cmax Mean (SD)) of 27.4 ng/mL and a Cmax (5 mg, Day 1, 5 mg QD oral, read-out: Cmax Median) of 26.6 ng/mL. The Tmax (5 mg, Day 1, 5 mg QD oral) was 4 h, the AUC(0-t) (5 mg, Day 14, 5 mg QD oral, read-out: AUC(0-24 h) GM (% CV)) was 844 ng·h/mL and the AUC(0-t) (5 mg, Day 14, 5 mg QD oral, read-out: AUC(0-24 h) Mean (SD)) was 864 ng·h/mL. For the same molecule, the AUC(0-t) (5 mg, Day 14, 5 mg QD oral, read-out: AUC(0-24 h) Median) was 773 ng·h/mL, the AUC(0-inf) (5 mg, Day 14, 5 mg QD oral, read-out: AUC(0-inf) GM (% CV)) was 2380 ng·h/mL and the AUC(0-inf) (5 mg, Day 14, 5 mg QD oral, read-out: AUC(0-inf) Mean (SD)) was 2480 ng·h/mL. It also gave an AUC(0-inf) (5 mg, Day 14, 5 mg QD oral, read-out: AUC(0-inf) Median) of 2510 ng·h/mL, a Cmax (5 mg, Day 14, 5 mg QD oral, read-out: Cmax GM (% CV)) of 58.6 ng/mL and a Cmax (5 mg, Day 14, 5 mg QD oral, read-out: Cmax Mean (SD)) of 61.7 ng/mL. It also gave a Cmax (5 mg, Day 14, 5 mg QD oral, read-out: Cmax Median) of 49.4 ng/mL, a Tmax (5 mg, Day 14, 5 mg QD oral) of 4 h and an AUC(0-t) (10 mg, Day 1, 10 mg QD oral, read-out: AUC(0-24 h) GM (% CV)) of 781 ng·h/mL. The AUC(0-t) (10 mg, Day 1, 10 mg QD oral, read-out: AUC(0-24 h) Mean (SD)) was 784 ng·h/mL, the AUC(0-t) (10 mg, Day 1, 10 mg QD oral, read-out: AUC(0-24 h) Median) was 735 ng·h/mL and the Cmax (10 mg, Day 1, 10 mg QD oral, read-out: Cmax GM (% CV)) was 65.5 ng/mL. The Cmax (10 mg, Day 1, 10 mg QD oral, read-out: Cmax Mean (SD)) was 66.2 ng/mL, the Cmax (10 mg, Day 1, 10 mg QD oral, read-out: Cmax Median) was 65.8 ng/mL and the Tmax (10 mg, Day 1, 10 mg QD oral) was 2 h. For the same molecule, the AUC(0-t) (10 mg, Day 14, 10 mg QD oral, read-out: AUC(0-24 h) GM (% CV)) was 1900 ng·h/mL, the AUC(0-t) (10 mg, Day 14, 10 mg QD oral, read-out: AUC(0-24 h) Mean (SD)) was 1940 ng·h/mL and the AUC(0-t) (10 mg, Day 14, 10 mg QD oral, read-out: AUC(0-24 h) Median) was 1980 ng·h/mL. It also gave an AUC(0-inf) (10 mg, Day 14, 10 mg QD oral, read-out: AUC(0-inf) GM (% CV)) of 5100 ng·h/mL, an AUC(0-inf) (10 mg, Day 14, 10 mg QD oral, read-out: AUC(0-inf) Mean (SD)) of 5260 ng·h/mL and an AUC(0-inf) (10 mg, Day 14, 10 mg QD oral, read-out: AUC(0-inf) Median) of 5360 ng·h/mL. For the same molecule, the Cmax (10 mg, Day 14, 10 mg QD oral, read-out: Cmax GM (% CV)) was 135 ng/mL, the Cmax (10 mg, Day 14, 10 mg QD oral, read-out: Cmax Mean (SD)) was 137 ng/mL and the Cmax (10 mg, Day 14, 10 mg QD oral, read-out: Cmax Median) was 144 ng/mL. It also gave a Tmax (10 mg, Day 14, 10 mg QD oral) of 1.5 h, an AUC(0-t) (25 mg, Day 1, 25 mg QD oral, read-out: AUC(0-24 h) GM (% CV)) of 1650 ng·h/mL and an AUC(0-t) (25 mg, Day 1, 25 mg QD oral, read-out: AUC(0-24 h) Mean (SD)) of 1670 ng·h/mL. For the same molecule, the AUC(0-t) (25 mg, Day 1, 25 mg QD oral, read-out: AUC(0-24 h) Median) was 1700 ng·h/mL, the Cmax (25 mg, Day 1, 25 mg QD oral, read-out: Cmax GM (% CV)) was 125 ng/mL and the Cmax (25 mg, Day 1, 25 mg QD oral, read-out: Cmax Mean (SD)) was 129 ng/mL. For the same molecule, the Cmax (25 mg, Day 1, 25 mg QD oral, read-out: Cmax Median) was 136 ng/mL, the Tmax (25 mg, Day 1, 25 mg QD oral) was 3.01 h and the AUC(0-t) (25 mg, Day 14, 25 mg QD oral, read-out: AUC(0-24 h) GM (% CV)) was 5140 ng·h/mL. For the same molecule, the AUC(0-t) (25 mg, Day 14, 25 mg QD oral, read-out: AUC(0-24 h) Mean (SD)) was 5210 ng·h/mL, the AUC(0-t) (25 mg, Day 14, 25 mg QD oral, read-out: AUC(0-24 h) Median) was 4760 ng·h/mL and the AUC(0-inf) (25 mg, Day 14, 25 mg QD oral, read-out: AUC(0-inf) GM (% CV)) was 15400 ng·h/mL. It also gave an AUC(0-inf) (25 mg, Day 14, 25 mg QD oral, read-out: AUC(0-inf) Mean (SD)) of 16200 ng·h/mL, an AUC(0-inf) (25 mg, Day 14, 25 mg QD oral, read-out: AUC(0-inf) Median) of 14000 ng·h/mL and a Cmax (25 mg, Day 14, 25 mg QD oral, read-out: Cmax GM (% CV)) of 332 ng/mL. It also gave a Cmax (25 mg, Day 14, 25 mg QD oral, read-out: Cmax Mean (SD)) of 336 ng/mL, a Cmax (25 mg, Day 14, 25 mg QD oral, read-out: Cmax Median) of 318 ng/mL and a Tmax (25 mg, Day 14, 25 mg QD oral) of 3 h. It also gave an AUC(0-t) (50 mg, Day 1, 50 mg QD oral, read-out: AUC(0-24 h) GM (% CV)) of 2970 ng·h/mL, an AUC(0-t) (50 mg, Day 1, 50 mg QD oral, read-out: AUC(0-24 h) Mean (SD)) of 3110 ng·h/mL and an AUC(0-t) (50 mg, Day 1, 50 mg QD oral, read-out: AUC(0-24 h) Median) of 3060 ng·h/mL. For the same molecule, the Cmax (50 mg, Day 1, 50 mg QD oral, read-out: Cmax GM (% CV)) was 214 ng/mL, the Cmax (50 mg, Day 1, 50 mg QD oral, read-out: Cmax Mean (SD)) was 237 ng/mL and the Cmax (50 mg, Day 1, 50 mg QD oral, read-out: Cmax Median) was 226 ng/mL. For the same molecule, the Tmax (50 mg, Day 1, 50 mg QD oral) was 3.53 h, the AUC(0-t) (50 mg, Day 14, 50 mg QD oral, read-out: AUC(0-24 h) GM (% CV)) was 11500 ng·h/mL and the AUC(0-t) (50 mg, Day 14, 50 mg QD oral, read-out: AUC(0-24 h) Mean (SD)) was 11800 ng·h/mL. The AUC(0-t) (50 mg, Day 14, 50 mg QD oral, read-out: AUC(0-24 h) Median) was 10900 ng·h/mL, the AUC(0-inf) (50 mg, Day 14, 50 mg QD oral, read-out: AUC(0-inf) GM (% CV)) was 38600 ng·h/mL and the AUC(0-inf) (50 mg, Day 14, 50 mg QD oral, read-out: AUC(0-inf) Mean (SD)) was 40700 ng·h/mL. It also gave an AUC(0-inf) (50 mg, Day 14, 50 mg QD oral, read-out: AUC(0-inf) Median) of 38100 ng·h/mL, a Cmax (50 mg, Day 14, 50 mg QD oral, read-out: Cmax GM (% CV)) of 778 ng/mL and a Cmax (50 mg, Day 14, 50 mg QD oral, read-out: Cmax Mean (SD)) of 788 ng/mL. The Cmax (50 mg, Day 14, 50 mg QD oral, read-out: Cmax Median) was 807 ng/mL, the Tmax (50 mg, Day 14, 50 mg QD oral) was 1.5 h and the AUC(0-t) (50 mg, Part C, 50 mg oral, read-out: AUC (0-24 h) GM (% CV)) was 10500 ng·h/mL. It also gave an AUC(0-t) (50 mg, Part C, 50 mg oral, read-out: AUC (0-24 h) Mean (SD)) of 10800 ng·h/mL and an AUC(0-t) (50 mg, Part C, 50 mg oral, read-out: AUC (0-24 h) Median) of 10600 ng·h/mL.
